The test system of assay [1] is TSP-1 transcription in mouse stromal cells in implanted H460 tumors. Kind of assay: TSP-1 transcription in mouse stromal cells of implanted H460 tumors. Conditions: Compound A 100 mg/kg, Compound B 40 mg/kg, 5 repeated oral doses. In kind it is in vivo. How it is done: […] Each group contains three mice. […] The expression level of TSP-1 mRNA was detected by ABI7700 analyzer using probe/primer pre-mixture reagent (ABI, Cat# Mm01335418 ml) and TaqMan® Universal PCR Master Mix (ABI, Cat# 430-4437) as described in the ABI's protocol.

Assay [2] has as its target T1, HDAC3 (Homo sapiens, UniProt O15379).
T1 construct: cDNAs corresponding to the full length human HDAC1, 2, 3 and 11 were cloned into pBlueBac4.5 vector; FLAG (C); made in house; host or cells: Sf-9 insect cells (baculovirus)
Kind of assay: Fluorescence-based HDAC enzyme assay, recombinant HDAC3. Type of assay: biochemical. Conditions: recombinant human HDAC enzyme in vitro; read-out: IC50 (μM) HD3. An excerpt: (§1) cDNAs of human HDAC1-8 and 11 were generated by RT-PCR reactions using primers complementary to the 5′ and 3′ coding sequence of human HDAC gene sequences in GenBank. cDNAs corresponding to the full length human HDAC1, 2, 3 and 11 were cloned into pBlueBac4.5 vector (Invitrogen). The constructs were used to generate recombinant baculoviruses using the Bac-N-Blue™ DNA according to the manufacturer's instructions (Invitrogen). The recombinant HDAC1, 2, 3, 11 proteins produced harbor a FLAG tag at their C-termini. cDNAs encoding truncated versions of HDAC4, 5 and 7 encompassing their deacetylase domains were cloned into pDEST10 as an N-terminal hexahistidine fusion protein and recombinant baculoviruses were generated using the Bac-to-Bac™ Baculovirus expression system (Invitrogen). HDAC6 and 8 were cloned as full length N-terminally His-tagged protein. All HDAC proteins were expressed in insect Sf-9 cells (Spodoptera frugiperdai) upon infection with recombinant baculovirus. HDAC1 enzyme was purified from the Q-sepharose FF column (Amersham Pharmacia Biotech, Baie d'Urfe QC, Canada) followed by an anti-FLAG immunoaffinity column (Sigma). HDAC2, 3 and 11 were purified using Flag-antibody immunoaffinity purification. HDAC4, 5, 6, 7 and 8 were purified using either Ni-NTA resin (QIAGEN Mississauga ON, Canada) or His-Select resin (Sigma) with step washes and elution with different concentrations of imidazole in Buffer containing 25 mM Tris (or NaPO4) pH 8.0, 10% glycerol and 150 mM or 500 mM NaCl.
Recombinant HDAC enzymes were incubated with diluted compounds in assay buffer (25 mM Hepes, pH 8.0, 137 mM NaCl, 1 mM MgCl2 and 2.7 mM KCl) for 10 minutes at ambient temperatures in black 96-well plate. Boc-Lys(Ac)-AMC (for HDAC1, 2, 3, 6, and 8 enzymes), which was purchased from Bachem Biosciences Inc., (King of Prussia, Philadelphia) were added into enzyme-compound mixture and incubated at 37° C. […] After 30 minutes, fluorescence was measured using a fluorometer (SPECTRAMAX GeminiXS, Molecular Devices, Sunnylvale, Calif.). […]

In assay [3] the target is T2, HDAC2 (Homo sapiens, UniProt Q92769).
T2 construct: cDNAs corresponding to the full length human HDAC1, 2, 3 and 11 were cloned into pBlueBac4.5 vector; FLAG (C); made in house; host or cells: Sf-9 insect cells (baculovirus)
T2 sequence (Q92769 whole entry): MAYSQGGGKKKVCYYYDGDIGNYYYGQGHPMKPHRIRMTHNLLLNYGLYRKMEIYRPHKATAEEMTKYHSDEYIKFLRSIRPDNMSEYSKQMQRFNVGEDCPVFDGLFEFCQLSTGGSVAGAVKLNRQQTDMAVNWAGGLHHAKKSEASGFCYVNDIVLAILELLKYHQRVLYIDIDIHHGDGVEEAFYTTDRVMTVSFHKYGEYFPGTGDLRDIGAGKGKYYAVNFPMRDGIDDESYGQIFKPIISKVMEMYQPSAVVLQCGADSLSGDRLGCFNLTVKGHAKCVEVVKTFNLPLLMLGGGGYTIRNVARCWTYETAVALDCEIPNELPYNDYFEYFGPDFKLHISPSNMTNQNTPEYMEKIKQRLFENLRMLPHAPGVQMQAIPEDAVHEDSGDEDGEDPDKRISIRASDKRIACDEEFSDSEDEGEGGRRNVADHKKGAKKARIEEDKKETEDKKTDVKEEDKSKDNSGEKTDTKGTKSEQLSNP
Description: Fluorescence-based HDAC enzyme assay, recombinant HDAC2. Type of assay: biochemical. Conditions: recombinant human HDAC enzyme in vitro; read-out: IC50 (μM) HD2.
Text: as §1, with “HDAC2, 3 and 11 were purified using Flag-antibody immunoaffinity purification.” left out
Boc-Lys(Ac)-AMC (for HDAC1, 2, 3, 6, and 8 enzymes), which was purchased from Bachem Biosciences Inc., (King of Prussia, Philadelphia) were added into enzyme-compound mixture and incubated at 37° C. For HDAC4, 5, 7 assays, Boc-Lys(TFA)-AMC, which was synthesized in house, was used as substrate and 0.1% BSA was added to the buffer. […] Reaction time was predetermined to ensure that reaction was linear for the incubation time. Reaction was stopped by adding a freshly prepared trypsin (1 mg/ml final concentration) with 1 μM TSA (Biomol) in assay buffer. After 30 minutes, fluorescence was measured using a fluorometer (SPECTRAMAX GeminiXS, Molecular Devices, Sunnylvale, Calif.).

The test system of assay [4] is human Du145 prostate tumor xenograft. Description: Du145 prostate tumor xenograft, combination with taxol. Type of assay: in vivo, mouse. Conditions: Du145, oral once daily 14 days with taxol 60 mg/kg i.v. On the procedure: Antitumor studies were done using human Du145 prostate tumor xenograft model in male BALBc/A nude mice (from Japan Crea Inc., Japan). Male nude mice were used at age 8-10 weeks. Human carcinoma cells were injected subcutaneously in the animal flank and allowed to form solid tumors. Tumor fragments (about 2 mm^2 fragments) were then removed and implanted subcutaneously to the right flank of other animals. When the tumor sizes reached about 100 to 200 mm^3, recipient animals were treated with Compound D, Compound E, Compound F, Compound G or Compound H (suspended with 0.5% HPMC) by oral administration alone, or taxol by i.v. injection (60 mg/kg), or combination of taxol with oral administration of Compound D, Compound E, Compound F, Compound G, Compound H. Typically, taxol was administered once per week by iv injection on the first day as a single administration, while Compound D, Compound E, Compound F, Compound G, or Compound H were administered once daily for 14 days. Tumor volumes and gross body weight of animals were monitored twice weekly for up to 2 weeks. Each experimental group contained at least 6 animals.

These results are taken from patent US20090124631A1, “Combination Therapy” (priority 2007, published 2009).

T1 sequence (O15379 whole entry): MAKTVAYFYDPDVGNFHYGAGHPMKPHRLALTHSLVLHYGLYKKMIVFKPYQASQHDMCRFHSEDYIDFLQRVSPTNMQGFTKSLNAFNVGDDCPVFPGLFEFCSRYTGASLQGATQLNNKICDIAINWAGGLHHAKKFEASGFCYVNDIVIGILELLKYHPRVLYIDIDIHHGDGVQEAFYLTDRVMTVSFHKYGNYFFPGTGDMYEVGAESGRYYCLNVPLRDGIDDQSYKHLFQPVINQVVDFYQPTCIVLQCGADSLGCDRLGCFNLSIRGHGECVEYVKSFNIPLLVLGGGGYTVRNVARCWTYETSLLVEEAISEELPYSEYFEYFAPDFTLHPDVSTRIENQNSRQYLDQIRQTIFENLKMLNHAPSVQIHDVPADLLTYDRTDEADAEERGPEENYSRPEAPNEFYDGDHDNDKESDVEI

For `Nc1ccccc1NC(=O)c1ccc(CNc2nccc(-c3cccnc3)n2)cc1` [Compound A], the “TSP-1 transcription in mouse stromal cells” value in assay [1] was “induction”.

For `Nc1ccccc1NC(=O)c1ccc(N2CC[C@H](Nc3cccnc3)C2)cc1` [Compound B], the half-maximal inhibitory concentration (IC50) amounted to 0.3 µM in assay [2] and 0.5 µM in assay [3]. In addition, the “TSP-1 transcription in mouse stromal cells” value in assay [1] was “induction”.

`Nc1ccc(-c2ccccc2)cc1NC(=O)c1ccc(N2CC[C@H](N)C2)cc1` [Compound D]: the half-inhibitory concentration (IC50) in assay [2] turned out to be 9 µM; in assay [3], 0.09 µM. The “antitumor activity of taxol” value in assay [4] is given as “Potentiation”.

As for `Nc1ccc(-c2ccccc2)cc1NC(=O)c1ccc(N2CCC(N)CC2)cc1` [Compound E], the 50% inhibitory concentration (IC50) in assay [3] came to 0.08 µM. In addition, the “antitumor activity of taxol” value in assay [4] is “Potentiation”.

Take `CN1CCN(c2ccc(C(=O)Nc3cc(-c4ccccn4)ccc3N)cc2)CC1` [Compound F]: in assay [3], the half-inhibitory concentration (IC50) was found to be 0.1 µM. The “antitumor activity of taxol” value in assay [4] was “Potentiation”.

Consider `CN1CCN(c2ccc(C(=O)Nc3cc(-c4ccncc4)ccc3N)cc2)CC1` [Compound G], for which the IC50 in assay [3] came to 0.1 µM. The “antitumor activity of taxol” value in assay [4] is “Potentiation”.

Turning to `CC(C)N1CCN(c2ccc(C(=O)Nc3cc(-c4ccncc4)ccc3N)cc2)CC1` [Compound H], the IC50 in assay [3] was determined as 0.09 µM. Moreover, the “antitumor activity of taxol” value in assay [4] is given as “Potentiation”.

The IC50 is the point on the concentration scale where inhibition reaches its midpoint.
